Results from PubChem BioAssay (NCI).
Values joined by “and” are separate entries in the source; they are usually repeats but may differ in a detail not shown here. Equal entries are not always repeated.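 48-hour exposure; five concentrations; linearly interpolated endpoints. GI50 is the concentration that inhibits growth by half. TGI: concentration producing complete growth inhibition.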

Experiments:
Test in all cases: inhibition of tumour cell growth, NCI panel, 48 h; in the data active = GI50 below about 0.43 µM; inactive = the rest
MALME-3M melanoma = test system: MALME-3M melanoma
IGROV1 ovarian = test system: IGROV1 ovarian
CAKI-1 renal = test system: CAKI-1 renal
CCRF-CEM leukemia = test system: CCRF-CEM leukemia
SR leukemia = test system: SR leukemia
HT29 colon = test system: HT29 colon
K-562 leukemia = test system: K-562 leukemia
EKVX NSCLC = test system: EKVX NSCLC
A549 NSCLC = test system: A549 NSCLC
OVCAR-4 ovarian = test system: OVCAR-4 ovarian

COc1cc(C)c(N(C)C(=O)CN(C)C)cc1Nc1nc(Nc2cccc(F)c2C(N)=O)c2cc[nH]c2n1
> 23.3 µM: TGI (SR leukemia)
inactive: GI50 (MALME-3M melanoma) > 25 µM | GI50 (IGROV1 ovarian) > 25 µM | GI50 (CAKI-1 renal) > 23.9 µM | GI50 (CCRF-CEM leukemia) > 19.3 µM | GI50 (SR leukemia) 7.85 µM | GI50 (HT29 colon) 1.37 µM | GI50 (K-562 leukemia) 18.1 µM | GI50 (EKVX NSCLC) > 25 µM | GI50 (A549 NSCLC) > 25 µM | GI50 (OVCAR-4 ovarian) > 25 µM
> 25 µM: TGI (MALME-3M melanoma) | TGI (IGROV1 ovarian) | TGI (CAKI-1 renal) | TGI (CCRF-CEM leukemia) | TGI (HT29 colon) | TGI (K-562 leukemia) | TGI (EKVX NSCLC) | TGI (A549 NSCLC) | TGI (OVCAR-4 ovarian)

O=c1c2cc(-c3ccccc3)sc2nc2sc(-c3ccccc3)nn12
> 100 µM: TGI (MALME-3M melanoma) | TGI (IGROV1 ovarian) | TGI (CAKI-1 renal) | TGI (CCRF-CEM leukemia) | TGI (SR leukemia) | TGI (HT29 colon) | TGI (K-562 leukemia) | TGI (EKVX NSCLC) | TGI (A549 NSCLC) | TGI (OVCAR-4 ovarian)

CC(C)(C)OC(=O)N(CCCn1c2c(c3ccccc3c1=O)C(=O)c1ccccc1-2)CCN(CCCn1c2c(c3ccccc3c1=O)C(=O)c1ccccc1-2)C(=O)OC(C)(C)C
> 50 µM: TGI (MALME-3M melanoma) | TGI (IGROV1 ovarian) | TGI (CAKI-1 renal) | TGI (CCRF-CEM leukemia) | TGI (HT29 colon) | TGI (K-562 leukemia) | TGI (EKVX NSCLC) | TGI (A549 NSCLC) | TGI (OVCAR-4 ovarian)
inactive: GI50 (MALME-3M melanoma) > 50 µM | GI50 (IGROV1 ovarian) 21.8 µM | GI50 (CAKI-1 renal) 37.9 µM | GI50 (CCRF-CEM leukemia) 4.93 µM | GI50 (SR leukemia) 2.26 µM | GI50 (HT29 colon) > 50 µM | GI50 (K-562 leukemia) 21.3 µM | GI50 (EKVX NSCLC) > 50 µM | GI50 (A549 NSCLC) 25.4 µM | GI50 (OVCAR-4 ovarian) > 50 µM
13.7 µM: TGI (SR leukemia)

CCCCCCCCOC(=O)c1cc(O)c(O)c(O)c1
inactive: GI50 (MALME-3M melanoma) 1.74 µM | GI50 (IGROV1 ovarian) 0.913 µM | GI50 (CAKI-1 renal) 0.644 µM | GI50 (HT29 colon) 14.8 µM | GI50 (K-562 leukemia) 2.05 µM | GI50 (EKVX NSCLC) 4.65 µM | GI50 (A549 NSCLC) 12.7 µM | GI50 (OVCAR-4 ovarian) 2.63 µM
22.4 µM: TGI (EKVX NSCLC)
10.3 µM: TGI (SR leukemia)
47.6 µM: TGI (HT29 colon)
3.52 µM: TGI (CAKI-1 renal)
9.25 µM: TGI (MALME-3M melanoma)
> 38.8 µM: TGI (K-562 leukemia)
49 µM: TGI (A549 NSCLC)
4.88 µM: TGI (IGROV1 ovarian)
> 42.8 µM: TGI (CCRF-CEM leukemia)
> 100 µM: TGI (OVCAR-4 ovarian)
active: GI50 (CCRF-CEM leukemia) 0.314 µM | GI50 (SR leukemia) 0.352 µM

COc1ccc(S(=O)(=O)N2CCCCC2)cc1NC(=O)c1[nH]c(C)c2c1CCCCC2=O
44.3 µM: TGI (IGROV1 ovarian)
21.7 µM: TGI (HT29 colon)
inactive: GI50 (MALME-3M melanoma) 1.76 µM | GI50 (IGROV1 ovarian) 1.45 µM | GI50 (CCRF-CEM leukemia) 3.14 µM | GI50 (SR leukemia) 0.762 µM | GI50 (HT29 colon) 0.822 µM | GI50 (K-562 leukemia) 1.75 µM | GI50 (EKVX NSCLC) 3.78 µM | GI50 (A549 NSCLC) 2.26 µM | GI50 (OVCAR-4 ovarian) 2.11 µM
56.7 µM: TGI (CAKI-1 renal)
15 µM: TGI (A549 NSCLC)
> 100 µM: TGI (CCRF-CEM leukemia) | TGI (SR leukemia) | TGI (K-562 leukemia) | TGI (EKVX NSCLC) | TGI (OVCAR-4 ovarian)
active: GI50 (CAKI-1 renal) 0.419 µM
93.8 µM: TGI (MALME-3M melanoma)

Cc1ccc2nc(NC(=O)CSC(=S)N3CCN(Cc4ccccc4)CC3)sc2c1
> 100 µM: TGI (MALME-3M melanoma) | TGI (IGROV1 ovarian) | TGI (CAKI-1 renal) | TGI (CCRF-CEM leukemia) | TGI (SR leukemia) | TGI (HT29 colon) | TGI (K-562 leukemia) | TGI (EKVX NSCLC) | TGI (A549 NSCLC) | TGI (OVCAR-4 ovarian)
inactive: GI50 (MALME-3M melanoma) > 100 µM | GI50 (IGROV1 ovarian) > 100 µM | GI50 (CAKI-1 renal) > 85.8 µM | GI50 (CCRF-CEM leukemia) > 100 µM | GI50 (SR leukemia) > 100 µM | GI50 (HT29 colon) 75.2 µM | GI50 (K-562 leukemia) > 100 µM | GI50 (EKVX NSCLC) > 100 µM | GI50 (A549 NSCLC) > 100 µM | GI50 (OVCAR-4 ovarian) > 100 µM

O=C(O/N=C1/CCC/C1=C\c1ccccc1)c1ccc(Cl)cc1
> 82.4 µM: TGI (CAKI-1 renal)
58.7 µM: TGI (OVCAR-4 ovarian)
> 100 µM: TGI (MALME-3M melanoma) | TGI (CCRF-CEM leukemia) | TGI (SR leukemia) | TGI (HT29 colon) | TGI (K-562 leukemia) | TGI (EKVX NSCLC) | TGI (A549 NSCLC)
> 65 µM: TGI (IGROV1 ovarian)

O=C(O)c1cc2c3c(c1)[C@H]1C=CC[C@H]1CN3CC1CC=CC21 (stereo partly drawn)
> 100 µM: TGI (MALME-3M melanoma) | TGI (IGROV1 ovarian) | TGI (CAKI-1 renal) | TGI (CCRF-CEM leukemia) | TGI (SR leukemia) | TGI (HT29 colon) | TGI (K-562 leukemia) | TGI (EKVX NSCLC) | TGI (A549 NSCLC) | TGI (OVCAR-4 ovarian)

COc1ccc(-n2nc(C)c3c(Nc4ccc(NC(=O)Nc5cc(C(F)(F)F)ccc5F)cc4)ncnc32)cc1
6.87 µM: TGI (CAKI-1 renal)
11.1 µM: TGI (IGROV1 ovarian)
inactive: GI50 (MALME-3M melanoma) 1.76 µM | GI50 (IGROV1 ovarian) 2.98 µM | GI50 (CAKI-1 renal) 2.01 µM | GI50 (CCRF-CEM leukemia) 2.94 µM | GI50 (SR leukemia) 2.87 µM | GI50 (HT29 colon) 2.31 µM | GI50 (K-562 leukemia) 2.99 µM | GI50 (EKVX NSCLC) 2.25 µM | GI50 (A549 NSCLC) 2.35 µM | GI50 (OVCAR-4 ovarian) 2.83 µM
4.06 µM: TGI (MALME-3M melanoma)
5.86 µM: TGI (A549 NSCLC)
5.88 µM: TGI (EKVX NSCLC)
5.8 µM: TGI (HT29 colon)
> 100 µM: TGI (CCRF-CEM leukemia) | TGI (SR leukemia) | TGI (K-562 leukemia) | TGI (OVCAR-4 ovarian)

CP(=O)(CCSc1ccccc1)c1ccccc1 (stereo not drawn)
> 100 µM: TGI (MALME-3M melanoma) | TGI (IGROV1 ovarian) | TGI (CAKI-1 renal) | TGI (CCRF-CEM leukemia) | TGI (SR leukemia) | TGI (HT29 colon) | TGI (K-562 leukemia) | TGI (EKVX NSCLC) | TGI (A549 NSCLC) | TGI (OVCAR-4 ovarian)

CCCCCn1ncc(-c2c(O)c(O)cc3c(O)c(-c4c(C)cc5c(-c6cnn(CCCCC)n6)c(O)c(O)cc5c4O)c(C)cc23)n1
4.49 µM: TGI (OVCAR-4 ovarian)
7.27 µM: TGI (SR leukemia)
4.75 µM: TGI (IGROV1 ovarian)
6.3 µM: TGI (CCRF-CEM leukemia)
4.47 µM: TGI (A549 NSCLC)
4.61 µM: TGI (EKVX NSCLC)
8.44 µM: TGI (K-562 leukemia)
4.73 µM: TGI (MALME-3M melanoma)
active: GI50 (MALME-3M melanoma) 0.138 µM | GI50 (IGROV1 ovarian) 0.182 µM | GI50 (CAKI-1 renal) 0.156 µM | GI50 (CCRF-CEM leukemia) 0.0927 µM | GI50 (SR leukemia) 0.201 µM | GI50 (HT29 colon) 0.12 µM | GI50 (K-562 leukemia) 0.0837 µM | GI50 (EKVX NSCLC) 0.177 µM | GI50 (A549 NSCLC) 0.117 µM | GI50 (OVCAR-4 ovarian) 0.176 µM
3.45 µM: TGI (HT29 colon)
4.24 µM: TGI (CAKI-1 renal)

C=CC1(C)/C(=N\O)C(C)(CC)C(=O)N1O (stereo not drawn)
> 100 µM: TGI (MALME-3M melanoma) | TGI (IGROV1 ovarian) | TGI (CAKI-1 renal) | TGI (CCRF-CEM leukemia) | TGI (SR leukemia) | TGI (HT29 colon) | TGI (K-562 leukemia) | TGI (EKVX NSCLC) | TGI (A549 NSCLC) | TGI (OVCAR-4 ovarian)

CCC1(c2ccncc2)CCC(=O)NC1=O (stereo not drawn)
> 100 µM: TGI (MALME-3M melanoma) | TGI (IGROV1 ovarian) | TGI (CAKI-1 renal) | TGI (CCRF-CEM leukemia) | TGI (SR leukemia) | TGI (HT29 colon) | TGI (K-562 leukemia) | TGI (EKVX NSCLC) | TGI (A549 NSCLC) | TGI (OVCAR-4 ovarian)

O=C(/C=C/c1ccccc1)c1ccc(O)c(CN2CCN(c3cc4c(cc3F)c(=O)c(C(=O)O)cn4C3CC3)CC2)c1
inactive: GI50 (MALME-3M melanoma) 0.769 µM | GI50 (IGROV1 ovarian) 1.36 µM | GI50 (CAKI-1 renal) 2.42 µM | GI50 (CCRF-CEM leukemia) 0.598 µM | GI50 (SR leukemia) 0.807 µM | GI50 (HT29 colon) 1.58 µM | GI50 (EKVX NSCLC) 3.66 µM | GI50 (A549 NSCLC) 3.17 µM | GI50 (OVCAR-4 ovarian) 16.7 µM
15.6 µM: TGI (MALME-3M melanoma)
> 100 µM: TGI (CAKI-1 renal) | TGI (CCRF-CEM leukemia) | TGI (SR leukemia) | TGI (HT29 colon) | TGI (K-562 leukemia) | TGI (EKVX NSCLC) | TGI (A549 NSCLC) | TGI (OVCAR-4 ovarian)
36.6 µM: TGI (IGROV1 ovarian)
active: GI50 (K-562 leukemia) 0.278 µM

COc1cc2c(cc1OCCN1C(=O)c3cccc4cccc(c34)C1=O)N=C[C@@H]1CCCN1C2=O
19.8 µM and 36.2 µM: TGI (CAKI-1 renal)
16.9 µM and 29.8 µM: TGI (HT29 colon)
11.6 µM and 25.6 µM: TGI (IGROV1 ovarian)
23.1 µM and 19.5 µM: TGI (CCRF-CEM leukemia)
inactive: GI50 (MALME-3M melanoma) 11.7 µM | GI50 (IGROV1 ovarian) 12.4 µM | GI50 (CAKI-1 renal) 18.8 µM | GI50 (CCRF-CEM leukemia) 1.44 µM | GI50 (HT29 colon) 14.4 µM | GI50 (K-562 leukemia) 7.63 µM | GI50 (EKVX NSCLC) 13.8 µM | GI50 (A549 NSCLC) 17.7 µM
15.7 µM and 24.5 µM: TGI (MALME-3M melanoma)
50 µM and 39 µM: TGI (OVCAR-4 ovarian)
17.1 µM and 53.1 µM: TGI (A549 NSCLC)
> 100 µM: TGI (SR leukemia)
10.9 µM and > 100 µM: TGI (K-562 leukemia)
18.3 µM and 26.7 µM: TGI (EKVX NSCLC)
